Results reported in patent US20230234920A1, “Azirine Containing Compounds as Anti-Angiogenesis Agents and a Process for the Preparation Thereof” (COUNCIL OF SCIENTIFIC & INDUSTRIAL RESEARCH, priority 2020, published 2023).

Experiments:
Src-kinase = test: Immunoblotting of treated HUVECs, Src-kinase; type: cell-based, human; details: 250 nM, 6 h
Experimental: (§1) (A) Serum-starved HUVECs were treated with control (0.1% DMSO), sunitinib and Compound 1 at a given concentrations and then incubated for 6 h. The expression level of phospho-VEGFR2 and GAPDH (housekeeping protein) was analyzed by immunoblotting. (B) Blots were quantified with Image-J software and the bar graphs represent the relative density of phospho-VEGFR2 normalized with GAPDH and the data are represented as mean±SEM with significant difference compared with control at *p<0.05. (D) Protein angiogenesis array showing up-regulation of anti-angiogenic protein and down-regulation of pro-angiogenic proteins on endothelial cell treated with Compound 1 at 260 nM.
Whole cell lysates of endothelial cells at 6 h of treatment with Compound 1 (250 nM) and sunitinib (50 nM) were prepared using the RIPA-lysis buffer. Proteins were fractionated and resolved on 8% SDS-PAGE gels and transferred onto PVDF membranes (Millipore). After incubation in blocking buffer (5% BSA in 1×TBST) for 1 h the membranes were incubated with primary antibodies specific for p-Akt and p-Src. GAPDH was used as housekeeping and loading control. The blots were then incubated with specific HRP-conjugated secondary antibodies and bands were visualized using ECL (Millipore) on Image Quant (LAS4010) chemiluminescence detection system. The band intensities were quantified using My Image Analysis software.

endothelial cell = test: Protein angiogenesis array; type: cell-based; details: 260 nM
Experimental: as §1

HCT116 colon tumor = HCT116 colon tumor model in nude mice; type: in vivo
Experimental: FIG. 12 represents Compound 1 inhibited tumor growth in vivo. Tumor sizes were recorded every alternate day by Vernier caliper measurements and calculated as [4/3*[…]*(length/2)*(width/2)]. (A) Nude mice with induced HCT116 tumor were given vehicle to the control group, sunitinib at (40 mg/kg) as a standard drug given orally and Compound 1 at (25 mg/kg) through IP route for 21 days and tumor regression was calculated for all groups. (B) Nude Mice with induced HCT116 colon tumor were given both, sunitinib and Compound 1 at (25 mg/kg) intra-muscularly for 15 days after attaining a tumor size of 100 mm^3, tumor volume reduction for treated groups were calculated and compared with control. Data are expressed as means±S.E.M. (6 mice/group) with significant difference compared with control at p<0.0001.
HCT 116 (Human colon cancer cell line) cells were trypsinised and the pellet was dissolved in ice chilled 1×PBS. HCT 116 cells suspension to a concentration of (1*10^6) cells in 50 μL PBS solution, were left on ice with occasional agitation. Mice were anaesthetized with ketamine: xylazine (100:10 mg/kg), abdominal side area was shaved and sterilized using 70% ethanol. 50 μL of cell suspension was injected slowly subcutaneously to all the mice. After 2 days, booster dose of tumor cells was injected to all mice as performed previously. The growth of the tumor was measured by using vernier caliper on day 2, 4, 6, 8, 10, 12, 14, 16 18, 20, 23 and presented in the form of tumor volume (mm^3)=[4/3*π*(long axis/2)*(short axis/2)]. After attaining a volume of 100 mm^3 of tumor size, all mice were distributed equally (n=6−8) in 3 groups of controls received vehicle (Olive oil). Sutent (25 mg/kg) as a positive control was given orally and Compound 1 (25 mg/kg) dissolved in olive oil was injected intra-muscularly for 15 days and the tumor size regression was measured on every alternate day as described previously. Post 15 days of treatment, mice from all groups were sacrificed and tumor was excised out and processed further for immunohistochemistry and molecular analysis.

HUVECs protein lysate = test: Drug Affinity Receptor Target (DART) analysis; type: binding, human; details: 10 mM
Experimental: HUVECs with confluency of 80-85% in 100 mm dish were trypsinised and the media was removed and washed twice with 1×PBS. These cells were lysed with lysis buffer at 4° C. Control and treatment group with […] of protein were incubated with vehicle and Compound 1 at a concentration of 10 mM for 15-30 mins at RT with gentle shaking. Then different proteases like thermolysin (10 μg/15 μL) and pronase at […] were added to both the control and treatment groups for 5-10 mins at RT. Digestion was stopped by adding protease inhibitor (20×) at specific interval and allowed to incubate at 4° C. for 10 mins. 6×SDS-PAGE loading dye was added to all the respective samples and heated at 70° C. for 10 mins. SDS-PAGE was performed for the given control and treatment group samples and then the gel was stained with 0.05% Coomassie Brilliant Blue (CBB-R250). After destaining the gel, bands of different molecular weight of treatment and control groups were excised off from the gel and further employed for the protein sequence analysis through LC/MS-MS (Liquid chromatography/Mass spectroscopy).

[1] = Intramuscular pharmacokinetic study of bulk compound 1 and chiral isomers; type: in vivo, male Sprague Dawley (SD) rats; details: IM 20 mg/kg
Experimental: In vivo pharmacokinetic study was performed in male Sprague Dawley (SD) rats (n=4). Intramuscular (IM) formulation of bulk of compound 1 as well as chiral isomer-1 and chiral isomer-2 was prepared by dissolving accurately weighed quantity of compound 1 (20 mg) in 1 mL of olive oil followed by vortexing for 2 min and sterilize through syringe filter. Blood samples were collected from the retro orbital plexus of rats under light ether anesthesia into microfuge tubes containing heparin as an anti-coagulant at 0.25, 0.5, 1, 3, 5, 7, 9, 24, 30, 48 and 72 hours post-dosing after intramuscular dose. Plasma sample was harvested by centrifuging the blood at 13000 rpm for 10 min on Sigma 1-15 K (Frankfurt, Germany) and stored frozen at −70±10° C. until bioanalysis. Each plasma sample (100 μl) was processed using protein precipitation method using 200 μl acetonitrile containing medicarpine as internal standard (I.S.) as protein precipitant, and 10 μl of the supernatant was injected for LC-MS/MS.

[2] = male, Sprague-Dawley, rat, plasma, mean ± S.D., n = 4

CCOC(=O)C1N=C1CCc1ccc(OC)cc1 (racemic) [Compound 1, Ethyl 3-(4-methoxyphenethyl)-2H-azirine-2-carboxylate]
Src-kinase expression (Src-kinase): marked reduction
expression of anti-angiogenic and angiogenic proteins (endothelial cell): significantly increased the protein expression of anti-angiogenic proteins and decreased the expression of angiogenic proteins
tumor volume (HCT116 colon tumor; 25 mg/kg IP route for 21 days, vs vehicle): progressive significant decrease in tumor volume
growth of HCT116 cells xenografts (HCT116 colon tumor; 25 mg/kg, 15 days): powerful inhibitory effect
T/C (HCT116 colon tumor; 25 mg/kg, day 2): 94.77%
T/C (HCT116 colon tumor; 25 mg/kg, day 4): 72.79%
T/C (HCT116 colon tumor; 25 mg/kg, day 6): 67.93%
T/C (HCT116 colon tumor; 25 mg/kg, day 8): 66.22%
T/C (HCT116 colon tumor; 25 mg/kg, day 10): 68.70%
T/C (HCT116 colon tumor; 25 mg/kg, day 12): 56.83%
T/C (HCT116 colon tumor; 25 mg/kg, day 14): 49.80%
T/C (HCT116 colon tumor; 25 mg/kg, day 16): 43.88%
vascular density in tumor tissues (CD31) (HCT116 colon tumor; 25 mg/kg, vs control group): reduced the vascular density in tumor tissues
tumor reduction (HCT116 colon tumor; in comparison to vehicle treated control group, end of experiment): 62.02%
protection of protein band against protease digestion (HUVECs protein lysate): Intact protein band was observed
Cl ([1]; mean ± S.D., n = 4): 3.4 ± 0.327 mL/min/kg
Vd ([1]; mean ± S.D., n = 4): 4.017 ± 0.868 L/kg
concentration at 0.25 h ([1]; male, Sprague-Dawley, rat, plasma, intramuscular, 0.25 h): 2910 ± 950 ng/mL
concentration at 0.5 h ([1]; male, Sprague-Dawley, rat, plasma, intramuscular, 0.5 h): 4440 ± 460 ng/mL
concentration at 1 h ([1]; male, Sprague-Dawley, rat, plasma, intramuscular, 1 h): 3930 ± 1200 ng/mL
concentration at 3 h ([1]; male, Sprague-Dawley, rat, plasma, intramuscular, 3 h): 3240 ± 240 ng/mL
concentration at 5 h ([1]; male, Sprague-Dawley, rat, plasma, intramuscular, 5 h): 2830 ± 320 ng/mL
concentration at 7 h ([1]; male, Sprague-Dawley, rat, plasma, intramuscular, 7 h): 2390 ± 530 ng/mL
concentration at 9 h ([1]; male, Sprague-Dawley, rat, plasma, intramuscular, 9 h): 3210 ± 810 ng/mL
concentration at 24 h ([1]; male, Sprague-Dawley, rat, plasma, intramuscular, 24 h): 1740 ± 240 ng/mL
concentration at 30 h ([1]; male, Sprague-Dawley, rat, plasma, intramuscular, 30 h): 1660 ± 230 ng/mL
concentration at 48 h ([1]; male, Sprague-Dawley, rat, plasma, intramuscular, 48 h): 262 ± 120 ng/mL
concentration at 72 h ([1]; male, Sprague-Dawley, rat, plasma, intramuscular, 72 h): 107 ± 10 ng/mL
AUC(0-inf) [1, 2]: 98600 ± 9400 ng·h/mL
half-life [1, 2]: 13.5 ± 1.7 h
AUC(0-t) ([1]; male, Sprague-Dawley, rat, plasma, mean ± S.D., n = 4, read-out: AUC0-72): 96400 ± 9850 ng·h/mL
Cmax ([1]; male, Sprague-Dawley, rat, plasma, mean ± S.D., n = 4, read-out: Cmax): 4620 ± 435 ng/mL
MRT ([1]; male, Sprague-Dawley, rat, plasma, mean ± S.D., n = 4, read-out: MRT): 18 ± 1.57 h
Tmax ([1]; male, Sprague-Dawley, rat, plasma, mean ± S.D., n = 4, read-out: Tmax): 0.667 ± 0.288 h
